Patent publication US8354419B2, “Benzimidazole analogues for the treatment or prevention of flavivirus infections” (Vertex Pharmaceuticals Incorporated, priority 2009, dated 2013)

System: HCV (Ib) RNA replication
Experiment: Cell-based luciferase reporter HCV (1b) RNA replication assay (replicon cell lines Huh-7 5.2 and ET)
Set-up: species or system Hepatitis C virus
Settings: Hepatitis C virus, Huh-7, 96 h, HCV 1b genotype replicon, luciferase readout, 4 days incubation; read-out: EC50_1b
From the text: Cell-Based Luciferase Reporter HCV (Ib) RNA Replication Assay Cell Culture
Replicon cell lines Huh-7, 5.2 and ET which are derived from the Huh-7 hepatocarcinoma cell line are maintained in culture as generally described in Krieger, N; Lohmann, V; Bartenschlager, R. Enhancement of hepatitis C virus RNA replication by cell culture-adaptive mutations. J. Virol. 2001, 75, 4614-4624. The Huh-7, 5.2 cells contain the highly cell culture-adapted replicon I389luc-ubi-neo/NS3-3′/5.1 construct that carries, in addition to the neomycin gene, an integrated copy to the firefly luciferase gene (Krieger, N; Lohmann, V; Bartenschlager, R. Enhancement of hepatitis C virus RNA replication by cell culture-adaptive mutations. J. Virol. 2001, 75, 4614-4624). This cell line allows measurement of HCV RNA replication and translation by measuring luciferase activity. It has been previously shown that the luciferase activity tightly follows the replicon RNA level in these cells (Krieger, N; Lohmann, V; Bartenschlager, R. Enhancement of hepatitis C virus RNA replication by cell culture-adaptive mutations. J. Virol. 2001, 75, 4614-4624). The Huh-7, ET cell line has the same features as those mentioned for Huh-7, 5.2 cell line, except that ET cells are more robust and contain an adaptative mutation in the HCV NS4B gene instead of NS5A. Both cell lines are maintained in cultures at a sub-confluent level (<85%) as the level of replicon RNA is highest in actively proliferating cells. The culture media used for cell passaging consist of DMEM (Gibco BRL Laboratories, Mississauga, ON, Canada) supplemented with 10% foetal bovine serum with 1% penicillin/streptomycin, 1% glutamine, 1% sodium pyruvate, 1% non-essential amino acids, and 180 ug/ml of G418 final concentration. Cells are incubated at 37° C., in an atmosphere of 5% CO2 and passaged twice a week to maintain sub-confluence.
Approximately 3000 viable Huh-7, 5.2 or ET cells (100 μl) are plated per well in a white opaque 96-well microtiter plate. The cell culture media used for the assay is the same as described above except that it contains no G418 and no phenol red. After an incubation period of 3-4 hours at 37° C. in a 5% CO2 incubator, compounds (100 μl) are added at various concentrations. Cells are then further incubated for 4 days at 37° C. in a 5% CO2 incubator. Thereafter, the culture media is removed and cells are lysed by the addition of 95 μL of the luciferase buffer (luciferin substrate in buffered detergent). Cell lysates are incubated at room temperature and protected from direct light for at least 10 minutes. Plates are read for luciferase counts using a luminometer (Wallac MicroBeta Trilux, Perkin ELmer™, MA, USA).
The 50% inhibitory concentrations (IC50s) for inhibitory effect are determined from dose response curves using eleven concentrations per compound in duplicate. Curves are fitted to data points using nonlinear regression analysis, and IC50s are interpolated from the resulting curve using GraphPad Prism software, version 2.0 (GraphPad Software Inc., San Diego, Calif., USA).
Table 2 show compounds representative of the present invention and the EC50 values against the HCV 1b genotype.

| Compound | EC50 [nM] |
| --- | --- |
| COC(=O)N[C@@H](C(=O)N1CCC[C@H]1c1nc2cc(C#Cc3ccc4[nH]c([C@@H]5CCCN5C(=O)[C@H](NC(=O)OC)c5ccccc5)nc4c3)ccc2[nH]1)c1ccccc1 [Compound 33, {(R)-2-[(S)-2-(5-{2-[(S)-1-((R)-2-Methoxycarbonylamino-2-phenyl-acetyl)-pyrrolidin-2-yl]-1H-benzoimidazol-5-ylethynyl}-1H-benzoimidazol-2-yl)-pyrrolidin-1-yl]-2-oxo-1-phenyl-ethyl}-carbamic acid methylester] | ≤ 5 |
| COC(=O)N[C@H](C(=O)N1CCC[C@H]1c1nc2cc(C#Cc3ccc4[nH]c([C@@H]5CCCN5C(=O)OC(C)(C)C)nc4c3)ccc2[nH]1)C(C)C [Compound 34, (S)-2-(5-{2-[(S)-1-((S)-2-Methoxycarbonylamino-3-methyl-butyryl)-pyrrolidin-2-yl]-1H-benzoimidazol-5-ylethynyl}-1H-benzoimidazol-2-yl)-pyrrolidine-1-carboxylic acid tert-butyl ester] | 5 to 5000 |
| COC(=O)N[C@H](C(=O)N1CCC[C@H]1c1nc2cc(C#Cc3ccc4[nH]c([C@@H]5CCCN5C(=O)[C@@H](NC(=O)OC)C(C)(C)C)nc4c3)ccc2[nH]1)C(C)C [Compound 36, {(S)-1-[(S)-2-(5-{2-[(S)-1-((S)-2-Methoxycarbonylamino-3-methyl-butyryl)-pyrrolidin-2-yl]-1H-benzoimidazol-5-ylethynyl}-1H-benzoimidazol-2-yl)-pyrrolidine-1-carbonyl]-2,2-dimethyl-propyl}-carbamic acid methyl ester] | ≤ 5 |
| COC(=O)N[C@H](C(=O)N1CCC[C@H]1c1nc2cc(C#Cc3ccc4[nH]c([C@@H]5CCCN5C(=O)[C@@H](NC(=O)OC)C(C)C)nc4c3)ccc2[nH]1)C(C)C [Compound 37, {(S)-1-[(S)-2-(5-{2-[(S)-1-((S)-2-Methoxycarbonylamino-3-methyl-butyryl)-pyrrolidin-2-yl]-1H-benzoimidazol-5-ylethynyl}-1H-benzoimidazol-2-yl)-pyrrolidine-1-carbonyl]-2-methyl-propyl}-carbamic acid methyl ester] | ≤ 5 |
| COC(=O)N[C@H](C(=O)N1CCC[C@H]1c1nc2cc(C#Cc3ccc4[nH]c([C@@H]5CCCN5C(=O)[C@H]5CCCO5)nc4c3)ccc2[nH]1)C(C)C [Compound 38, {(S)-2-Methyl-1-[(S)-2-(5-{2-[(S)-1-((R)-tetrahydro-furan-2-carbonyl)-pyrrolidin-2-yl]-1H-benzoimidazol-5-ylethynyl}-1H-benzoimidazol-2-yl)-pyrrolidine-1-carbonyl]-propyl}-carbamic acid methyl ester] | ≤ 5 |
| COC(=O)N[C@H](C(=O)N1CCC[C@H]1c1nc2cc(C#Cc3ccc4[nH]c([C@@H]5CCCN5C(=O)[C@H](NC(=O)OC)c5ccccc5)nc4c3)ccc2[nH]1)C(C)C [Compound 39, {(S)-1-[(S)-2-(5-{2-[(S)-1-((R)-2-Methoxycarbonylamino-2-phenyl-acetyl)-pyrrolidin-2-yl]-1H-benzoimidazol-5-ylethynyl}-1H-benzoimidazol-2-yl)-pyrrolidine-1-carbonyl]-2-methyl-propyl}-carbamic acid methyl ester] | ≤ 5 |
| O=C(OCc1ccccc1)N1CCCC[C@H]1c1nc2cc(C#C/C=C/c3ccc4[nH]c([C@@H]5CCCCN5C(=O)OCc5ccccc5)nc4c3)ccc2[nH]1 [Compound 40, (S)-2-(5-{(E)-4-[2-((S)-1-Benzyloxycarbonyl-piperidin-2-yl)-1H-benzoimidazol-5-yl]-but-1-en-3-ynyl}-1H-benzoimidazol-2-yl)-piperidine-1-carboxylic acid benzyl ester] | 5 to 5000 |
| O=C(OCc1ccccc1)N1CCCC[C@H]1c1nc2cc(C#CC#Cc3ccc4[nH]c([C@@H]5CCCCN5C(=O)OCc5ccccc5)nc4c3)ccc2[nH]1 [Compound 41, (S)-2-(5-{4-[2-((S)-1-Benzyloxycarbonyl-piperidin-2-yl)-1H-benzoimidazol-5-yl]-buta-1,3-diynyl}-1H-benzoimidazol-2-yl)-piperidine-1-carboxylic acid benzyl ester] | 5 to 5000 |
